# Reference: patent EP2979694B1, “Dimercaptosuccinic acid for the treatment of multidrug resistant bacterial infections” (priority 2014, dated 2016)
# Legend:
# Kp NDM IND = assay: MIC of meropenem with or without DMSA or MSA; type: cell-based, K. pneumoniae
# Experimental: (§1) MICs of meropenem with of without DMSA or MSA Table 3
# (§2) DMSA and MSA were used at a concentration of 3 mM each. A negative control was used as strain KpC3 producing the non- metallo carbapenemase KPC
# Kp NDM KIE = assay: MIC of meropenem with or without DMSA or MSA; type: cell-based, K. pneumoniae
# Experimental: as §1, §2
# Kp VIM KOW1 = assay: MIC of meropenem with or without DMSA or MSA; type: cell-based, K. pneumoniae
# Experimental: as §1, §2
# [1] = after a single oral dose of DMSA (10 mg); cited from earlier work
# [2] = tested on: E. coli TOP10 pCR2.1-(PNDM-1-blaNDM-1-bleMBL); assay: MIC of imipenem, broth microdilution in zinc-complemented M9CA minimum medium; type: cell-based
# From the text: (§3) Inhibitory properties of DMSA and EDTA were also compared in-vitro by UV spectrophotometry using purified NDM-1 protein and carbapenems as substrates. E. coli TOP10 pCR2.1-(PNDM-1-blaNDM-1-bleMBL), expressing the blaNDM-1 gene with its original promoter (PNDM-1) cloned into a pTOPO multicopy plasmid and expressed in E. coli TOP10 reference strain (Dortet et al. 2012) was used for preliminary assays in order to determine the most efficient of DMSA being active against NDM producers.
# MICs of imipenem was determined for E. coli TOP10 pCR2.1-(PNDM-1-blaNDM-1-bleMBL) in the presence of 0, 0.01, 0.1 or 1 mg/ml of Ca-EDTA or DMSA by using the broth microdilution method in zinc-complemented M9CA minimum medium (SD7025, Euromedex, France). M9CA minimal medium was used preferably to the standard Mueller Hinton broth in order to determine precisely the concentration of zinc in broth (ZnSO4, Sigma Aldrich, France, 5µg/ml (final concentration).
# (§4) A 100 mM DMSA stock solution (Sigma Aldrich, France) (pH 5.0) was prepared in 0.2 M NaOH as recommended (Maiorino et al. 1990) and pH was neutralized to pH 7.0 with NaHCO3 Na2Ca-EDTA (Sigma Aldrich, France) dissolved in water.
# Kp C3 KPC-3 = assay: MIC of meropenem with or without DMSA or MSA (negative control strain, non-metallo carbapenemase KPC); type: cell-based, K. pneumoniae; conditions: Kp C3 KPC-3 (negative control)
# Experimental: as §1, §2
# IMP-like producers = assay: MIC of carbapenems, summary over IMP producers (n=9); type: cell-based
# Experimental: (§5) The strains were as follows: VIM producers (n=10), IMP producers (n=9), NDM-1 producers (n=10). The selected concentration of DMSA was 10-fold (0.3 mM) and 100-fold (3 mM) that of the human peak serum concentration after oral administration (Asiedu et al;, 1995), and that of Ca-EDTA was assayed at the fixed concentration of 0.2 mM (Table 2). The MICs of carbapenems varied widely among isolates producing a same carbapenemase type. DMSA at 3 mM lowered the MICs of imipenem and ertapenem of IMP-like producers (100% of the tested isolates), and VIM-like producers (70 to 80 % of the tested isolates). […]
# IMP-1 = IMP-1 (Serratia marcescens, UniProt P52699); conditions: 20 microM; cited from earlier work
# Sequence of IMP-1 (P52699 19-246 limits assumed): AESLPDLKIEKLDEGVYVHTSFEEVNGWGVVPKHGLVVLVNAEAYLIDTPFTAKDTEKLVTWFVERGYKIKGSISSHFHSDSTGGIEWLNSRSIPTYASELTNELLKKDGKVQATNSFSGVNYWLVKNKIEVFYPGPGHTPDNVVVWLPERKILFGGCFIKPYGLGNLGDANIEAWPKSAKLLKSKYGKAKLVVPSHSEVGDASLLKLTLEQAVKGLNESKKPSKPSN
# NDM-like producers = assay: MIC of carbapenems, summary over NDM producers (n=10); type: cell-based; conditions: DMSA at 3 mM
# Experimental: as §5
# NDM-1 [3] = target: T1, NDM-1 (Klebsiella pneumoniae, UniProt C7C422); assay: Inhibition of purified NDM-1 hydrolytic activity, UV spectrophotometry; type: biochemical
# T1 construct: made in house
# T1 sequence (C7C422 29-270, looked up): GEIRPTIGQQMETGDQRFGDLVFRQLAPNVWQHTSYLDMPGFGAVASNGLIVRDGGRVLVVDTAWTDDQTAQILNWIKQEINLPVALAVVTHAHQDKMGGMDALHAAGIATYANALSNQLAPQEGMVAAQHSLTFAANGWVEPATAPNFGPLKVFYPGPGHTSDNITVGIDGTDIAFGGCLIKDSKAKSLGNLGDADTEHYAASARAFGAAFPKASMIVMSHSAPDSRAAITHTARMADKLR
# From the text: as §3
# Inhibition of NDM-1 by DMSA was assessed on a purified fraction of NDM-1, obtained as previously described for NDM-4 (Nordmann et al. 2012) with imipenem 100 µM as substrate.
# E. coli NDM CHAN = assay: MIC of meropenem with or without DMSA or MSA; type: cell-based
# Experimental: (§6) DMSA reduced the MICs of ertapenem for bacteria producing NDM-1 though the synergy effect was weaker than that observed for bacteria producing IMP and VIM-type MBLs.
# as §1, §2
# E. coli NDM FEK = assay: MIC of meropenem with or without DMSA or MSA; type: cell-based
# Experimental: as §6, §1, §2
# E. coli VIM KOW7 = assay: MIC of meropenem with or without DMSA or MSA; type: cell-based
# Experimental: as §6, §1, §2
# E. coli NDM pCR2.1 = assay: MIC of meropenem with or without DMSA or MSA; type: cell-based
# Experimental: as §6, §1, §2
# K.p. TAW = assay: MIC of carbapenems with or without DMSA; type: cell-based, K. pneumoniae; conditions: IMP-8 + SHV-5, no DMSA
# Experimental: (§7) Minimum inhibitory concentrations (MICs) of carbapenems were determined in-vitro with strains (reference and clinical) producing the three main types of class B carbapenemases which are IMP, VIM and NDM, with or without EDTA and DMSA.
# (§8) MICs of imipenem was determined for E. coli TOP10 pCR2.1-(PNDM-1-blaNDM-1-bleMBL) in the presence of 0, 0.01, 0.1 or 1 mg/ml of Ca-EDTA or DMSA by using the broth microdilution method in zinc-complemented M9CA minimum medium (SD7025, Euromedex, France).
# as §4
# (§9) The strains were as follows: VIM producers (n=10), IMP producers (n=9), NDM-1 producers (n=10). The selected concentration of DMSA was 10-fold (0.3 mM) and 100-fold (3 mM) that of the human peak serum concentration after oral administration (Asiedu et al;, 1995), and that of Ca-EDTA was assayed at the fixed concentration of 0.2 mM (Table 2). […]
# K.p. 0709124 = assay: MIC of carbapenems with or without DMSA; type: cell-based, K. pneumoniae; conditions: K.p. 0709124, IMP-1b + TEM-15; no DMSA
# Experimental: as §7, §8, §4, §9
# K.p. 6852 = assay: MIC of carbapenems with or without DMSA; type: cell-based, K. pneumoniae; conditions: K.p. 6852, IMP-1 + SHV-5; no DMSA
# Experimental: as §7, §8, §4, §9
# K.p. ROUM = assay: MIC of carbapenems with or without DMSA; type: cell-based, K. pneumoniae; conditions: VIM, no DMSA
# Experimental: as §7, §8, §4, §9
# E. cloacae 1008183 = assay: MIC of carbapenems with or without DMSA; type: cell-based; conditions: E. cloacae 1008183, IMP-1; no DMSA
# Experimental: as §7, §8, §4, §9
# E. cloacae 1008186 = assay: MIC of carbapenems with or without DMSA; type: cell-based; conditions: E. cloacae 1008186, IMP-1; no DMSA
# Experimental: as §7, §8, §4, §9
# E. coli DIH = assay: MIC of carbapenems with or without DMSA; type: cell-based; conditions: VIM-19, no DMSA
# Experimental: as §7, §8, §4, §9
# E. coli 1008077 = assay: MIC of carbapenems with or without DMSA; type: cell-based; conditions: E. coli 1008077, VIM-1 + TEM-3; no DMSA
# Experimental: as §7, §8, §4, §9
# E. coli IR5 = assay: MIC of carbapenems with or without DMSA; type: cell-based; conditions: E. coli IR5, NDM-1 + TEM-1 +CTX-M-15; no DMSA
# Experimental: as §7, §8, §4, §9
# E. coli JAP = assay: MIC of carbapenems with or without DMSA; type: cell-based; conditions: IMP-1, no DMSA
# Experimental: as §7, §8, §4, §9
# E. coli 162 = assay: MIC of carbapenems with or without DMSA; type: cell-based; conditions: E. coli 162, NDM-5 + TEM-1 +CTX-M-15; no DMSA
# Experimental: as §7, §8, §4, §9
# E. cloacae 1008085 = assay: MIC of carbapenems with or without DMSA; type: cell-based; conditions: E. cloacae 1008085, IMP-1; no DMSA
# Experimental: as §7, §8, §4, §9
# E. coli MAD = assay: MIC of carbapenems with or without DMSA; type: cell-based; conditions: VIM-1 + CTX-M-3, no DMSA
# Experimental: as §7, §8, §4, §9
# E. coli 0404018 = assay: MIC of carbapenems with or without DMSA; type: cell-based; conditions: E. coli 0404018, VIM-1 + CMY-6; no DMSA
# Experimental: as §7, §8, §4, §9
# E. cloacae 1008029 = assay: MIC of carbapenems with or without DMSA; type: cell-based; conditions: E. cloacae 1008029, VIM-1 + CTX-M-3; no DMSA
# Experimental: as §7, §8, §4, §9
# E. cloacae 396715 = assay: MIC of carbapenems with or without DMSA; type: cell-based; conditions: E. cloacae 396715, VIM-1; no DMSA
# Experimental: as §7, §8, §4, §9
# E. coli COUP = assay: MIC of carbapenems with or without DMSA; type: cell-based; conditions: NDM-7 + OXA-1 +CTX-M-15, no DMSA
# Experimental: as §7, §8, §4, §9
# E. coli BOUN = assay: MIC of carbapenems with or without DMSA; type: cell-based; conditions: NDM-4 + OXA-1, no DMSA
# Experimental: as §7, §8, §4, §9
# E. coli IBIS = assay: MIC of carbapenems with or without DMSA; type: cell-based; conditions: VIM-4, no DMSA, unit assumed
# Experimental: as §7, §8, §4, §9
# E. coli 1108013 = assay: MIC of carbapenems with or without DMSA; type: cell-based; conditions: E. coli 1108013, IMP-1 + TEM-1; no DMSA
# Experimental: as §7, §8, §4, §9
# E. coli 405 = assay: MIC of carbapenems with or without DMSA; type: cell-based; conditions: E. coli 405, NDM-5 + TEM-1 +CTX-M-15; no DMSA
# Experimental: as §7, §8, §4, §9
# E. cloacae TAW = assay: MIC of carbapenems with or without DMSA; type: cell-based; conditions: IMP-8, no DMSA
# Experimental: as §7, §8, §4, §9
# NDM-1 [4] = target: T1, NDM-1; conditions: affinity for NDM-1; cited from earlier work
# [5] = Klebsiella pneumoniae, without DMSA or MSA
# [6] = Escherichia coli, without DMSA or MSA
compound,measurement,setting,value
"O=C(O)[C@@H](S)[C@@H](S)C(=O)O [DMSA, meso-2,3-dimercaptosuccinic acid]",MIC of meropenem,Kp NDM IND; DMSA or MSA at 3 mM,4 µg/mL
same,MIC of meropenem,Kp NDM KIE; DMSA or MSA at 3 mM,0.5 µg/mL
same,MIC of meropenem,Kp VIM KOW1; DMSA or MSA at 3 mM,32 µg/mL
same,plasma concentrations of DMSA,[1],ca. 100 µM
same,MIC of imipenem,[2]; DMSA 0 mg/ml (imipenem alone),12 µg/mL
same,MIC of imipenem,[2]; DMSA 0.01 mg/ml,12 µg/mL
same,MIC of imipenem,[2]; DMSA 0.1 mg/ml,12 µg/mL
same,MIC of imipenem,[2]; DMSA 1 mg/ml,0.2 µg/mL
same,MIC of meropenem,Kp C3 KPC-3; DMSA or MSA at 3 mM,> 32 µg/mL
same,effect on the MICs of carbapenems,"IMP-like producers; DMSA 0.3 mM, IMP-like producing isolates",lowered the MICs of carbapenems for most IMP-like producing isolates
same,tested isolates for which the MICs of imipenem and ertapenem were lowered,"IMP-like producers; DMSA at 3 mM, IMP-like producers",100%
same,inhibition of IMP-1,IMP-1,inhibit
same,effect on the MIC values of imipenem,NDM-like producers,did not significantly affect
same,tested isolates for which the MICs of ertapenem were reduced,NDM-like producers,50%
same,IC50,NDM-1 [3],1 mM
same,MIC of meropenem,E. coli NDM CHAN; DMSA or MSA at 3 mM,2 µg/mL
same,MIC of meropenem,E. coli NDM FEK; DMSA or MSA at 3 mM,4 µg/mL
same,MIC of meropenem,E. coli VIM KOW7; DMSA or MSA at 3 mM,0.25 µg/mL
same,MIC of meropenem,"E. coli NDM pCR2.1; E. coli NDM pCR2.1, DMSA or MSA at 3 mM",8 µg/mL
"C[C@@H](O)[C@H]1C(=O)N2C(C(=O)O)=C(SCCN=CN)C[C@H]12 [IPM, imipenem]",MIC,K.p. TAW,4 µg/mL
same,MIC,K.p. 0709124,32 µg/mL
same,MIC,K.p. 6852,> 32 µg/mL
same,MIC,K.p. ROUM,32 µg/mL
same,MIC,E. cloacae 1008183,8 µg/mL
same,MIC,E. cloacae 1008186,16 µg/mL
same,MIC,E. coli DIH,16 µg/mL
same,MIC,E. coli 1008077,32 µg/mL
same,MIC,E. coli IR5,2 µg/mL
same,MIC,E. coli JAP,0.25 µg/mL
same,MIC,E. coli 162,32 µg/mL
same,MIC,E. cloacae 1008085,2 µg/mL
same,MIC,E. coli MAD,0.25 µg/mL
same,MIC,E. coli 0404018,4 µg/mL
same,MIC,E. cloacae 1008029,16 µg/mL
same,MIC,E. cloacae 396715,4 µg/mL
same,MIC,E. coli COUP,2 µg/mL
same,MIC,E. coli BOUN,2 µg/mL
same,MIC,E. coli IBIS,1 µg/mL
same,MIC,E. coli 1108013,4 µg/mL
same,MIC,E. coli 405,32 µg/mL
same,MIC,E. cloacae TAW,4 µg/mL
CC/C(C(=O)O)=C(\CC)C(=O)O [ME1071],Ki,NDM-1 [4],24 mM
C[C@@H](O)[C@H]1C(=O)N2C(C(=O)O)=C(S[C@@H]3CN[C@H](C(=O)N(C)C)C3)[C@H](C)[C@H]12 [meropenem],MIC,Kp NDM IND; [5],4 µg/mL
same,MIC,Kp NDM KIE; [5],4 µg/mL
same,MIC,"Kp VIM KOW1; Klebsiella pneumoniae, VIMKOW1, without DMSA or MSA",> 32 µg/mL
same,MIC,"Kp C3 KPC-3; Klebsiella pneumoniae, C3KPC3, without DMSA or MSA",> 32 µg/mL
same,MIC,E. coli NDM CHAN; [6],3 µg/mL
same,MIC,E. coli NDM FEK; [6],6 µg/mL
same,MIC,"E. coli VIM KOW7; Escherichia coli, VIMKOW7, without DMSA or MSA",0.5 µg/mL
same,MIC,"E. coli NDM pCR2.1; Escherichia coli, NDMPCR2.1, read-out: MIC of meropenem",> 32 µg/mL
